According to patent US9075070B2, “HTS fluorescence polarization assay for inhibitors of Keap1-Nrf2 interaction” (RUTGERS, THE STATE UNIVERSITY OF NEW JERSEY, priority 2011, dated 2015):

Target: human Keap1 Kelch domain (Homo sapiens, UniProt Q14145)
Test: FP binding assay: titration of fluorescently labeled Nrf2 peptide probes with Keap1 Kelch domain
Conditions: difference in the free and the bound anisotropy of the FITC-labeled peptide

Sequence of human Keap1 Kelch domain (Q14145 with tags, fused parts or gaps): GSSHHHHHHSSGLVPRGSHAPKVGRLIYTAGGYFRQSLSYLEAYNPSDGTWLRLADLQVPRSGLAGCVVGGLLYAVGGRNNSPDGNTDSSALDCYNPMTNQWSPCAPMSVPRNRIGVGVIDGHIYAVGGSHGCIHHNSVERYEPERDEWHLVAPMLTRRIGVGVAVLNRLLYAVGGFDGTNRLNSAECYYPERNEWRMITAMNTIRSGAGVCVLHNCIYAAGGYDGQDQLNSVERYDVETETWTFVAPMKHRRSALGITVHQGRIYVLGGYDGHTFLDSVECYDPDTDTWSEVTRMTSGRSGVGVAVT

## CC(C)C[C@H](NC(=O)[C@H](Cc1ccccc1)NC(=O)[C@H](CCC(=O)O)NC(=O)CNC(=O)[C@@H](NC(=O)[C@H](CCC(=O)O)NC(=O)[C@H](CCC(=O)O)NC(=O)[C@H](CC(=O)O)NC(=O)[C@H](CC(C)C)NC(=O)[C@H](CCC(N)=O)NC(=O)[C@H](CC(C)C)NC(=O)[C@H](CCC(N)=O)NC(=O)[C@H](C)NC(=O)[C@H](Cc1ccccc1)NC(=S)Nc1ccc2c(c1)C(=O)OC21c2ccc(O)cc2Oc2cc(O)ccc21)[C@@H](C)O)C(=O)O [FITC-14mer Nrf2]
  Dynamic Range (ΔmA): 64.2 mA
